Source: article PMC10377586 (Biomolecules, 2023)
pKi: −log10 of the molar value.

Tests used:
[1] = biological target: T1, human A3 (hA3) ARs (Homo sapiens, UniProt P0DMS8); assay: Radioligand binding [3H]PSB-11, CHO cell membranes; conditions: for pKi: CHO cell membranes, read-out: hA3 [3H]PSB-11 Ki ± SEM; for inhibition at 1 µM: read-out: hA3 [3H]PSB-11 % inhibition ± SEM at 1 µM
T1 construct: expressed in transfected cells; host or cells: CHO cells (membranes)
T1 sequence (P0DMS8 1-318): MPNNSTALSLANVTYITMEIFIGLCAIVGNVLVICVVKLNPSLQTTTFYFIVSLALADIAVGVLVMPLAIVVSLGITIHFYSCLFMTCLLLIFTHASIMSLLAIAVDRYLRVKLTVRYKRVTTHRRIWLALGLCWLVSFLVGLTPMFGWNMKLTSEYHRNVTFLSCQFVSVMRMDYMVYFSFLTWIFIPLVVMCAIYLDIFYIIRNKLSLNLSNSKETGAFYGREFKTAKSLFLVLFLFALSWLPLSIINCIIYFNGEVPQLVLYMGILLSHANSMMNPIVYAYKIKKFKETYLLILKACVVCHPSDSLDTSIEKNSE
Description: The final compounds were tested in radioligand binding assays to evaluate their affinity for all four ARs subtypes (see Table 2). Rat brain cortical membrane preparations were used as a source of rat A1 (rA1) ARs, and rat brain striatal membrane preparations served as a source of rat A2A (rA2A) ARs. For A2B- and A3AR assays, membrane preparations of Chinese hamster ovary (CHO) cells recombinantly expressing either human A2B (hA2B) or human A3 (hA3) ARs were employed.
Adenosine receptor radioligand binding assays were performed as previously described using rat brain cortical membrane preparations for A1 and rat brain striatal membrane preparations for A2A AR assays. Frozen rat brains (unstripped) were obtained from Pel Freez, Rogers, AR, USA. For assays at human AR subtypes, cell membranes of CHO cells recombinantly expressing the respective receptor were used. The following compounds were employed as radioligands: A1: [^3H]2-chloro-N^6-cyclopentyladenosine ([^3H]CCPA); A2A: [^3H]3-(3-hydroxypropyl)-7-methyl-8-(m-methoxystyryl)-1-propargylxanthine ([^3H]MSX-2); A2B: [^3H]8-(4-(4-(4-chlorophenyl)piperazine-1-sulfonyl)phenyl)-1-propylxanthine ([^3H]PSB-603); A3: [^3H]phenyl-8-ethyl-4-methyl-(8R)-4,5,7,8-tetrahydro-1H-imidazo[2,1-i]purine-5-one ([^3H]PSB-11). Initially, a single high concentration of compound was tested (1 µM). For potent compounds, full concentration–inhibition curves were determined using six to ten different concentrations of test compound spanning three orders of magnitude. At least three independent experiments were performed. Data were analyzed using GraphPad PRISM program version 4.0 or higher (Graph Pad, San Diego, CA, USA).

[2] = biological target: T2, rat D1 receptor (Rattus norvegicus, UniProt P18901); assay: Radioligand binding [3H]SCH23390, rat brain tissue; conditions: for pKi: native rat D1 receptor, read-out: rD1 [3H]SCH23390 Ki ± SEM; for inhibition at 1 µM: read-out: rD1 [3H]SCH23390 % inhibition ± SEM at 1 µM
T2 construct: source of native rat D1 receptor protein; from tissue; host or cells: rat striatum (methods) / rat brain cortical membranes
Description: Rat brain cortical membranes were used as source of native rat D1 receptor protein, and human D2 receptor was recombinantly expressed in HEK293 cells.
Rat striatum tissue was thawed in 50 volumes of ice-cold 50 mM potassium phosphate buffer, pH 7.4, homogenized and centrifuged at 20,000× g for 20 min. The resulting pellet was resuspended in the same quantity of the buffer and centrifuged again for 20 min. Binding experiments were conducted in 96-well microplates in a total volume of 250 μL of appropriate buffers. Reaction mix included 50 μL solution of test compound, 50 μL of radioligand, and 150 μL of tissue suspension (3 mg/mL). [^3H]SCH23390 (spec. act. 81.9 Ci/mmol, PerkinElmer, NET 930) was used for labeling the D1-receptor. For measuring unspecific binding, cis(Z)flupentixol—5 μM was applied. Samples were incubated at 30 °C for 60 min. The incubation was terminated by rapid filtration over glass fiber filters GF/B using a Harvester (PerkinElmer, USA). The radioactivity was measured in MicroBeta TriLux 1450—liquid scintillation counter (PerkinElmer). Each compound was tested in a screening assay in duplicate at final concentrations of 1 µM. Results were expressed as a percent of inhibition of specific binding.

[3] = biological target: T3, rat A1 (rA1) ARs (Rattus norvegicus, UniProt P25099); assay: Radioligand binding [3H]CCPA, rat brain cortical membranes; conditions: read-out: rA1 [3H]CCPA % inhibition ± SEM at 10 µM
T3 construct: using rat brain cortical membrane preparations for A1; tissue Pel Freez; host or cells: rat brain cortex membranes
T3 sequence (P25099 1-326): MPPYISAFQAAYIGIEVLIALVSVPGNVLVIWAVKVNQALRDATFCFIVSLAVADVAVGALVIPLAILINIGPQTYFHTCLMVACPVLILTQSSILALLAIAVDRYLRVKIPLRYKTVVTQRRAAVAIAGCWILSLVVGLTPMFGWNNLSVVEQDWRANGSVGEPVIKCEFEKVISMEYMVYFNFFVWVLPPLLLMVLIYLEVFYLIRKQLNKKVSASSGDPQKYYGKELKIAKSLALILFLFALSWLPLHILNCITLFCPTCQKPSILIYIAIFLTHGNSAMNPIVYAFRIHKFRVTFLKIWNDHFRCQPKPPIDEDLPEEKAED

T2 sequence (P18901 whole entry): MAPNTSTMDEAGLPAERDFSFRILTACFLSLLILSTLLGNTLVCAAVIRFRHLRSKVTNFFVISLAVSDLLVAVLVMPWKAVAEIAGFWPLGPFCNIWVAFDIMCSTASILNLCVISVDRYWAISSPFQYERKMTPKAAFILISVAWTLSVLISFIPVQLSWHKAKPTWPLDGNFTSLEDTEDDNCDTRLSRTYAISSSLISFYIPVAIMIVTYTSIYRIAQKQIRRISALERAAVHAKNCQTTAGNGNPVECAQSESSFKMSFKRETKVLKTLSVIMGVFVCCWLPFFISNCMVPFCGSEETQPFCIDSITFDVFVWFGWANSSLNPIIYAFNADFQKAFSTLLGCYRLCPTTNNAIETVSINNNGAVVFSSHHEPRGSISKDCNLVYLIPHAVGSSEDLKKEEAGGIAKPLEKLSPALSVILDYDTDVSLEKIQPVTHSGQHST

| pKi [1] | inhibition at 1 µM [1] [%] | pKi [2] | inhibition at 1 µM [2] [%] | melting point [°C] | inhibition at 10 µM [3] [%] | SMILES |
| --- | --- | --- | --- | --- | --- | --- |
| < 6.00 | 3 | < 6.00 | 9 | 216 to 218 | 43 | CCCCCCn1c(NCCc2ccc(O)c(O)c2)nc2c1c(=O)n(C)c(=O)n2C [Compound 11i, 8-((3,4-Dihydroxyphenethyl)amino)-7-hexyl-1,3-dimethyl-3,7-dihydro-1H-purine-2,6-dione] |
| < 6.00 | -6 | < 6.00 | 15 | 213 to 215 | 43 | Cn1c(=O)c2c(nc3n2CCCN3CCc2ccc(O)c(O)c2)n(C)c1=O [Compound 20a, 9-(3,4-Dihydroxyphenethyl)-1,3-dimethyl-6,7,8,9-tetrahydropyrimido[2,1-f]purine-2,4(1H,3H)-dione] |
| < 6.00 | -1 | < 6.00 | 6 |  | 46 | Cn1c(=O)c2c(nc(NCCc3ccc(O)c(O)c3)n2CCc2ccccc2)n(C)c1=O [Compound 11k, 8-((3,4-Dihydroxyphenethyl)amino)-1,3-dimethyl-7-phenethyl-3,7-dihydro-1H-purine-2,6-dione] |
